We go through two molecules from article PMC4376459, “CXCR3 antagonist VUF10085 binds to an intrahelical site distinct from that of the broad spectrum antagonist TAK-779” (British Journal of Pharmacology, 2015).

Where a chain is given by its changes, count along the chain named.

The target of test [1] is T1, WT CXCR3 (Homo sapiens, UniProt P49682).
T1 construct: expressed in transfected cells; host or cells: murine pre-B cell line L1.2, transient transfection by electroporation
T1 sequence (P49682 1-368): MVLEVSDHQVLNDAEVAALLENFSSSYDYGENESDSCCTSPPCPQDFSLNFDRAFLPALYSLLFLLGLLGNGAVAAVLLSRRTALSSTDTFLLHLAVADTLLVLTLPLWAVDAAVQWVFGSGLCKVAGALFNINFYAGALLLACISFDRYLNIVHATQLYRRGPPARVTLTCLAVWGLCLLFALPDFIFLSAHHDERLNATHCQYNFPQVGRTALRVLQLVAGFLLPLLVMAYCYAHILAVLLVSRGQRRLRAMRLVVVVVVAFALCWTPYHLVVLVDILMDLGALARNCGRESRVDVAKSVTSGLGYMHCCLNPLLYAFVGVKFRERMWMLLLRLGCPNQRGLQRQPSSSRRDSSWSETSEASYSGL
The experiment in a line: Chemotaxis assay, L1.2 transfectants migrating to CXCL11. The test is classed as cell-based.

A further test deals with T2, CXCR3 F131A (Homo sapiens, UniProt P49682, F131A).
T2 construct: expressed in transfected cells; host or cells: murine pre-B cell line L1.2, transient transfection
T2 sequence (P49682 1-368 F131A): T1 sequence (P49682 1-368) with F131A
The description is as above. The test is classed as cell-based.

A further test addresses T3, CXCR3 Y60A (Homo sapiens, UniProt P49682, Y60A).
T3 construct: expressed in transfected cells; host or cells: murine pre-B cell line L1.2, transient transfection
T3 sequence (P49682 1-368 Y60A): T1 sequence (P49682 1-368) with Y60A
The test is described as above. The test is classed as cell-based.

Another test has as its target T4, CXCR3 H202A (ECL2) (Homo sapiens, UniProt P49682, H202A).
T4 construct: expressed in transfected cells; host or cells: murine pre-B cell line L1.2, transient transfection
T4 sequence (P49682 1-368 H202A): T1 sequence (P49682 1-368) with H202A
The description is as above. The test is classed as cell-based.

Another test addresses T5, CXCR3 I279A (Homo sapiens, UniProt P49682, I279A).
T5 construct: expressed in transfected cells; host or cells: murine pre-B cell line L1.2, transient transfection
T5 sequence (P49682 1-368 I279A): T1 sequence (P49682 1-368) with I279A
The test is described as above. The class given is cell-based.

In the next test the target is T6, D112N-CXCR3 (Homo sapiens, UniProt P49682, D112N).
T6 construct: expressed in transfected cells; host or cells: murine pre-B cell line L1.2, transient transfection
T6 sequence (P49682 1-368 D112N): T1 sequence (P49682 1-368) with D112N
The test is described as above. The class given is cell-based. The note with it: 10 nM CXCL11, read-out: IC50 for inhibition of migration.

For test [2], the target named is T1, WT CXCR3. Kind of test: Whole-cell 125I-CXCL11 binding assay, L1.2 transfectants. The note with it: WT CXCR3 transfectants (Figure 1); read-out: IC50 for displacement of 125I-CXCL11. (In general: Loss of bound radioactivity is the signal in a displacement assay; it reports binding, not function.)
The mark [3] stands for this setting: 30 nM CXCL11, read-out: IC50 chemotaxis (mean ± SEM).

`Cc1ccc(-c2ccc3c(c2)C=C(C(=O)Nc2ccc(C[N+](C)(C)C4CCOCC4)cc2)CCC3)cc1.[Cl-]` [TAK-779, N,N-dimethyl-N-[4-[[[2-(4-methylphenyl)-6,7-dihydro-5H-benzocyclohepten-8-yl]-carbonyl]amino]benzyl] tetrahydro-2H-pyran-4-aminium chloride]: the IC50 at WT CXCR3 [1] (WT CXCR3, 30 nM CXCL11, read-out: IC50 chemotaxis (mean ± SEM)) worked out at 15.8 ± 3.1 µM; at CXCR3 F131A (setting [3]), 15 ± 6.98 µM; on CXCR3 Y60A (setting [3]), 10.2 ± 4.62 µM; on CXCR3 H202A (ECL2) (H202A (ECL2), 30 nM CXCL11, read-out: IC50 chemotaxis (mean ± SEM)), 32.7 ± 14 µM; on CXCR3 I279A (setting [3]), 10.5 ± 3.35 µM; at D112N-CXCR3, 1340 nM. For the same molecule, the IC50 at WT CXCR3 [2] is 15.6 µM. Moreover, the “increase in IC50 value, chemotaxis” value at CXCR3 H202A (ECL2) (H202A versus WT, 30 nM CXCL11) is “twofold”.

Regarding “CXCL11: recombinant human chemokine, CXCR3 agonist, purchased from PeproTech”, the “optimum concentration of bell-shaped chemotaxis response” value with WT CXCR3 [1] (WT CXCR3) amounted to 30 nM. Moreover, the “% of WT chemotaxis to 30 nM CXCL11 (mean ± SEM)” value is recorded as 100 ± 4.32% with WT CXCR3 [1] (WT CXCR3, 30 nM CXCL11); 53.7 ± 5.6% with CXCR3 F131A; 55.4 ± 16.4% with CXCR3 Y60A; 66.0 ± 34.8% with CXCR3 H202A (ECL2) (H202A); 51.3 ± 6.2% with CXCR3 I279A.
